Assay results as given in patent publication EP2611847B1, “AMPHIPHILE FOR SOLUBILIZATION OF WATER-SOLUBLE ACTIVE INGREDIENTS” (BASF SE, priority 2010, dated 2012).
≈ marks a conversion by molar mass, not a printed value. Where two headings read alike, the source gives them in different places.

Assay: physchem
Assay type: physicochemical
Details: for solubility thermodynamic at 24 h: thermodynamic from solid
Experimental: In einem 50 mL Becherglas wurden 100 mg Polymer eingewogen und in 9,900 g dest. Wasser gelöst. Anschließend wurde dem Ansatz jeweils 100 mg Wirkstoff zugewogen, um eine übersättigte Lösung zu erhalten. Das Gemisch wurde nun 24 h bei Raumtemperatur mit Hilfe eines Magnetrührers gerührt. Nach einstündiger Ruhezeit wurde überschüssiger (d.h. nicht solubilisierter) Wirkstoff durch Zentrifugieren abgetrennt. Die so erhaltene, klare bzw. opake Lösung wurde anschließend auf ihren Wirkstoffgehalt mittels UV-Spektroskopie untersucht. Die Wellenlänge der UV-spektroskopischen Messung sind in Tabelle 1 zusammengestellt. Die Ergebnisse sind in Tabelle 2 zusammengestellt.

[1] = active alone in dist. water without polymer (not according to the invention), 24 h at room temperature

SMILES	Löslichkeit Ohne Polymer [1]	further results
NC(=O)N1c2ccccc2C=Cc2ccccc21 [Carbamazepin]	140 mg/L	
N#Cc1nn(-c2c(Cl)cc(C(F)(F)F)cc2Cl)c(N)c1[S+]([O-])C(F)(F)F (stereo not shown) [Fipronil]		solubility thermodynamic at 24 h (distilled water without polymer, active alone in dist. water without polymer (not according to the invention), 24 h at room temperature, read-out: Löslichkeit Ohne Polymer): 3 µg/mL (≈ 6.86 µM)
CN1C(C(=O)Nc2ccccn2)=C(O)c2ccccc2S1(=O)=O [Piroxicam]		solubility thermodynamic at 24 h (water): 21 µg/mL (≈ 63.4 µM)
COC(=O)N(OC)c1ccccc1COc1ccn(-c2ccc(Cl)cc2)n1 [Pyraclostrobin]	22,5 mg/l	
